# In PubChem BioAssay AID1329 (NMMLSC, 2008):
# The source made the active and inactive calls. No rule for the calls is given here.
# Target: Induced myeloid leukemia cell differentiation protein Mcl-1 (Homo sapiens) (UniProt Q07820)
# Experiment: modulators of Bim peptide binding to Mcl-1, dose response, biochemical, bead-based flow cytometry, multiplexed, human (AID 1329)
# Conditions: Bim peptide-Mcl-1 binding, MCF
# Induced myeloid leukemia cell differentiation protein Mcl-1 (Homo sapiens), sequence (Q07820 whole entry, looked up): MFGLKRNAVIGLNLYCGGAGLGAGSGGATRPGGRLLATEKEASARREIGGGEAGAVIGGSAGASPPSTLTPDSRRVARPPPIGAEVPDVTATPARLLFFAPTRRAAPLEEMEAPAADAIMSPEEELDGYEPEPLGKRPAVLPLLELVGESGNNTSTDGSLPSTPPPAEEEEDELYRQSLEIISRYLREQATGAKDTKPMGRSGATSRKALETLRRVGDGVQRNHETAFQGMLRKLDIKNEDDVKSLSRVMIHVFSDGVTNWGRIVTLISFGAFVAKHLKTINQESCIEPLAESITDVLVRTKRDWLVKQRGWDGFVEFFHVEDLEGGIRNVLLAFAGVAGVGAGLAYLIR
row,percent span,Compound
1,inactive,CN(Cc1ccccc1)c1nc2c(c(=O)[nH]c(=O)n2C)n1C
2,inactive,O=C(O)c1ccccc1NSc1ccccc1[N+](=O)[O-]
3,inactive,COc1ccc(NC(=O)/C(Cl)=C(/Cl)S(=O)Cc2ccccc2)cn1 (stereo unspecified)
4,inactive,CCOC(=O)C1=C(Cc2ccc(OC)cc2)C(=O)c2ccccc2C1=O
5,inactive,O=C1C=C(Nc2ccccc2)C(=O)c2ccccc21
6,inactive,O=C(NCCc1ccccc1)c1ccc2nc(-c3ccco3)c(-c3ccco3)nc2c1
7,inactive,CCOc1ccc(N2C(=O)C(Cl)=C(Nc3ccccc3O)C2=O)cc1
8,inactive,Cn1c(=O)c(C(=O)COC(=O)c2cc(-c3ccco3)nc3ccccc23)c(N)n(CC2CC2)c1=O

# More lines, now with the values behind:
row,Compound,percent span
1,Cc1ccc(-n2nc(C)c(C(=O)O)n2)c(C)c1,inactive
2,Cc1cccc(Nc2nc(-c3ccncc3)cs2)c1,inactive
3,COc1ccc(C)cc1Nc1ccc(C(=O)O)cc1[N+](=O)[O-],inactive
4,Cc1ccccc1/C=N/Nc1ccnc2cc(Cl)ccc12,inactive
5,CC(C)CN1C(=O)/C(=C/c2ccco2)NC1=S,inactive
6,COc1ccc(-c2noc(COc3ccc4c(c3)OCO4)n2)cc1OC,inactive
7,COc1ccc(CC(=O)Nc2ccc3nc(C)sc3c2)cc1OC,inactive
8,CCOc1cc(CNc2ccc(N(C)C)cc2)cc(Br)c1OCC(=O)NC(C)(C)C,inactive
